Experimental data published in PMC6691788, “Design and synthesis of phthalazine-based compounds as potent anticancer agents with potential antiangiogenic activity via VEGFR-2 inhibition” (Journal of Enzyme Inhibition and Medicinal Chemistry, 2019).

Tests used:
[1] = tested on: K-562; experiment: NCI 60 cell panel SRB screen; type: cell-based; conditions: Homo sapiens, K562; K-562, single dose 10 μM; read-out: percent cell growth promotion
[2] = tested on: RPMI-8226; experiment: NCI 60 cell panel SRB screen; type: cell-based; conditions: Homo sapiens; RPMI-8226, single dose 10 μM; read-out: percent cell growth promotion
[3] = tested on: MALME-3M; experiment: NCI 60 cell panel SRB screen; type: cell-based; conditions: Homo sapiens, Malme-3M, read-out: percent cell growth promotion
[4] = tested on: NCI-H522; experiment: NCI 60 cell panel SRB screen; type: cell-based; conditions: Homo sapiens; NCI-H522, single dose 10 μM; read-out: percent cell growth promotion
[5] = tested on: NCI-H322M; experiment: NCI 60 cell panel SRB screen; type: cell-based; conditions: Homo sapiens, single dose 10 μM, read-out: percent cell growth promotion
[6] = tested on: LOX IMVI; experiment: NCI 60 cell panel SRB screen; type: cell-based; conditions: Homo sapiens, read-out: percent cell growth promotion
[7] = tested on: SR; experiment: NCI 60 cell panel SRB screen; type: cell-based; conditions: Homo sapiens, single dose 10 μM, read-out: percent cell growth promotion
[8] = tested on: OVCAR-4; experiment: NCI 60 cell panel SRB screen; type: cell-based; conditions: Homo sapiens; OVCAR-4, single dose 10 μM; read-out: percent cell growth promotion
[9] = tested on: NCI-H23; experiment: NCI 60 cell panel SRB screen; type: cell-based; conditions: Homo sapiens; NCI-H23, single dose 10 μM; read-out: percent cell growth promotion
[10] = tested on: SNB-75; experiment: NCI 60 cell panel SRB screen; type: cell-based; conditions: Homo sapiens; SNB-75, single dose 10 μM; read-out: percent cell growth promotion
[11] = tested on: SW-620; experiment: NCI 60 cell panel SRB screen; type: cell-based; conditions: Homo sapiens; SW-620, single dose 10 μM; read-out: percent cell growth promotion
[12] = tested on: OVCAR-5; experiment: NCI 60 cell panel SRB screen; type: cell-based; conditions: Homo sapiens; OVCAR-5, single dose 10 μM; read-out: percent cell growth promotion
[13] = tested on: 786-0; experiment: NCI 60 cell panel SRB screen; type: cell-based; conditions: Homo sapiens; 786-0, single dose 10 μM; read-out: percent cell growth promotion
[14] = tested on: NCI-H226; experiment: NCI 60 cell panel SRB screen; type: cell-based; conditions: Homo sapiens; NCI-H226, single dose 10 μM; read-out: percent cell growth promotion
[15] = target: T1, VEGFR-2 tyrosine kinase (Homo sapiens, UniProt P35968); experiment: In vitro VEGFR-2 tyrosine kinase assay (BPS Bioscience); type: biochemical; conditions: read-out: VEGFR-2 % inhibition; 10 μM concentration
T1 construct: purchased BPS Bioscience 40301
T1 sequence (P35968 20-1356): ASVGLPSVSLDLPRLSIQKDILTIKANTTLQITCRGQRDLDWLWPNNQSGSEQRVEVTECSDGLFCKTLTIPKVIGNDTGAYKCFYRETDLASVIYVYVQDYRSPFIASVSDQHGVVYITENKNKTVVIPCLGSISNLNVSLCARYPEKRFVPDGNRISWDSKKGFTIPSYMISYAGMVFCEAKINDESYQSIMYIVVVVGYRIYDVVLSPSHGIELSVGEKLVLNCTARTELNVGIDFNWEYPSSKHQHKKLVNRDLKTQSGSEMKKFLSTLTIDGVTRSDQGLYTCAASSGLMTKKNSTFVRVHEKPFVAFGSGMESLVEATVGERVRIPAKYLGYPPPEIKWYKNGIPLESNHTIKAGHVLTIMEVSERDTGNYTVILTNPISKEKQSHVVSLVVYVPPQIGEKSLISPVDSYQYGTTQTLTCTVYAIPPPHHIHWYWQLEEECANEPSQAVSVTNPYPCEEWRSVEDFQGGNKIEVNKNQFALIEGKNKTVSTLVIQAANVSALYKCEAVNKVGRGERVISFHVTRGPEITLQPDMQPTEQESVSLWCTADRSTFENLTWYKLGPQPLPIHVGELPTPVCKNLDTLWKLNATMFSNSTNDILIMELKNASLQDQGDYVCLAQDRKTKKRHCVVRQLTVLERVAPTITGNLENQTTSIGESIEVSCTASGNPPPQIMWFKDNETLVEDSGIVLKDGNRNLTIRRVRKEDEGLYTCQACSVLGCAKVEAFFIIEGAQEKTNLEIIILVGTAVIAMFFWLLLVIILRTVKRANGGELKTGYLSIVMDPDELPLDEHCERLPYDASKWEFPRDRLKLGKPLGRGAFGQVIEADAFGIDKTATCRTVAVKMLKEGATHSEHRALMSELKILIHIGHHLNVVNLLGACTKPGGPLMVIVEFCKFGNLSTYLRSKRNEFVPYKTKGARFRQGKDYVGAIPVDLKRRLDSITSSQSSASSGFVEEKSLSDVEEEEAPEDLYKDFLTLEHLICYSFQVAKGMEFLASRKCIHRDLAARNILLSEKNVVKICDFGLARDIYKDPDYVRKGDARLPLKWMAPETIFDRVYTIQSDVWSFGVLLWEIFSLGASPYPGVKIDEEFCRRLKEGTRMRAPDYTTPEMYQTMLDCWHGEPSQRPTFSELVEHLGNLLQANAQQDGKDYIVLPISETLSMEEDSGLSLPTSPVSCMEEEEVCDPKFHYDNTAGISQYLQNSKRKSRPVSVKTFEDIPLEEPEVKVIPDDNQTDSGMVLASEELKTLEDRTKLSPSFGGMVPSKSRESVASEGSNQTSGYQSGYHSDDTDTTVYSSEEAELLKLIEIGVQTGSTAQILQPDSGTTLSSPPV
Outline: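 Single-point screen at 10 µM: recombinant VEGFR with poly(Glu,Tyr) 0.2 mg/ml, 10 μM ATP, Tris pH 7.4, MgCl2, BSA, 1% DMSO, 40 min at 30 °C; residual ATP read by Kinase-Glo Plus luminescence.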

[16] = tested on: CCRF-CEM; experiment: NCI 60 cell panel SRB screen; type: cell-based, human; conditions: Homo sapiens, single dose 10 μM, read-out: percent cell growth promotion
[17] = tested on: COLO 205; experiment: NCI 60 cell panel SRB screen; type: cell-based; conditions: Homo sapiens; COLO 205, single dose 10 μM; read-out: percent cell growth promotion
[18] = tested on: BT-549; experiment: NCI 60 cell panel SRB screen; type: cell-based; conditions: Homo sapiens, BT-549, read-out: percent cell growth promotion
[19] = tested on: T-47D; experiment: NCI 60 cell panel SRB screen; type: cell-based; conditions: Homo sapiens, T47D, read-out: percent cell growth promotion
[20] = tested on: SK-MEL-28; experiment: NCI 60 cell panel SRB screen; type: cell-based; conditions: Homo sapiens, SK-MEL-28, read-out: percent cell growth promotion

Row | SMILES | activity at 10 µM [1] [%] | activity at 10 µM [2] [%] | activity at 10 µM [3] [%] | activity at 10 µM [4] [%] | activity at 10 µM [5] [%] | activity at 10 µM [6] [%] | activity at 10 µM [7] [%] | activity at 10 µM [8] [%] | activity at 10 µM [9] [%] | activity at 10 µM [10] [%] | activity at 10 µM [11] [%] | activity at 10 µM [12] [%] | activity at 10 µM [13] [%] | activity at 10 µM [14] [%] | inhibition at 10 µM [15] [%] | activity at 10 µM [16] [%] | activity at 10 µM [17] [%] | activity at 10 µM [18] [%] | activity at 10 µM [19] [%] | activity at 10 µM [20] [%]
1 | Cc1nnc(N2CCN(c3ccccc3)CC2)c2ccccc12 [Compound 8g, 1-Methyl-4–(4-phenylpiperazin-1-yl)phthalazine] | 116 | 104 | 114 | 94.5 | 112 | 103 | 107 | 104 | 103 | 98.1 | 107 | 98.2 | 100 | 95.2 | 13 | 103 | 97.7 | 75.5 | 90.5 | 109
2 | CCOC(=O)N1CCN(c2nncc3ccccc23)CC1 [Compound 8a, Ethyl 4-(phthalazin-1-yl)piperazine-1-carboxylate] | 110 | 101 | 109 | 99.8 | 113 | 98.7 | 102 | 107 | 105 | 104 | 102 | 128 | 106 | 100 | 13 | 96.9 | 109 | 112 | 100 | 116
3 | O=C(Nc1ccc(Cl)cc1)Nc1ccc(Oc2nnc(Cl)c3ccccc23)cc1 [Compound 13b, 1–(4-Chlorophenyl)-3–(4-(4-chlorophthalazin-1-yloxy)phenyl)urea] | 93.2 | 87.7 | 92.3 | 52.5 | 99.1 | 86.2 | 82.8 | 72.1 | 89 | 74 | 106 | 113 | 114 | 81.4 | 38 | 66 | 106 | 96.8 | 70.5 | 106
4 | CCOC(=O)N1CCN(c2nnc(C)c3ccccc23)CC1 [Compound 8f, Ethyl 4–(4-methylphthalazin-1-yl)piperazine-1-carboxylate] | 100 | 96.9 | 102 | 93.8 | 101 | 106 | 101 | 97.8 | 104 | 101 | 104 | 95 | 93.3 | 103 | 14 | 103 | 109 | 66.7 | 87.2 | 113
